The values below come from patent publication US12557815B2, “Herbicide combinations comprising glufosinate and pyraflufen-ethyl” (BASF SE, priority 2020, dated 2026).

The structures appear in SMILES notation.

This assay concerns Kochia (Bassia scoparia). Nature of the assay: Greenhouse post emergence treatment, visual herbicidal control on a scale from 0 to 100. The class given is in vivo. The source says: Synergism can be described as an interaction where the combined effect of two or more compounds is greater than the sum of the individual effects of each of the compounds. The presence of a synergistic effect in terms of percent control, between two mixing partners (X and Y) can be calculated using the Colby equation (Colby, S. R., 1967, Calculating Synergistic and Antagonistic Responses in Herbicide Combinations, Weeds, 15, 21-22):
When the observed combined control effect is greater than the expected (calculated) combined control effect (E), then the combined effect is synergistic.
Weeds included Kochia (Bassia scoparia). However, the herbicidal effect afforded by the compounds, mixtures or compositions is not limited to these species. The analysis of synergism or antagonism between the mixtures or compositions was determined using Colby's equation.
Pots with 0.3 L of volume were filled with soil (SunGro Horticulture, Agawam, MA 01001) to grow one plant per pot in the greenhouse until the desired developmental stage. Environmental conditions inside the greenhouse were set up for 25° C., 75% relative humidity, and 12 h light day^−1 with natural sunlight or 500 […] PAR for cloudy days. […] During this time, the plants were tended, and their response to the individual treatments was evaluated. […]

Regarding `CP(=O)(O)CCC(N)C(=O)O` (racemic) [Glufosinate, (2RS)-2-amino-4-[hydroxy(methyl)phosphinoyl]butyric acid], the “Herbicidal activity against Kochia (21 DAT) Found” value (Glufosinate 420 g ai/ha alone, visual scale 0 to 100 (100 = complete destruction), mean of three replications) is reported as 25.

Take `CCOC(=O)COc1cc(-c2nn(C)c(OC(F)F)c2Cl)c(F)cc1Cl` [Pyraflufen, pyraflufen-ethyl]: the “Herbicidal activity against Kochia (21 DAT) Found” value (Pyraflufen 0.2 g ai/ha alone, visual scale 0 to 100, mean of three replications) was 32.
